Source: US10501473B2, “Fused heterocyclic ring compounds and method of treating retinal disease using same” (THE INDUSTRY & ACADEMIC COOPERATION IN CHUNGNAM NATIONAL …, priority 2014, dated 2019)

Key:
[1] = tested on: RGC-5 (rat ganglion cell); experiment: Retinal nerve protection under oxygen-glucose deprivation (OGD), LDH assay; format: cell-based; conditions: RGC-5, OGD 15 hours, compound 20 μM, DMSO control = 100%
Protocol: The following experiment was performed to evaluate the protective effect of the compounds of examples of the invention on the retinal nerve under oxygen-glucose deprivation condition.
The retinal ganglion cell line RGC-5 (rat ganglion cell) was cultured in DMEM (Dulbecco's modified Eagle's medium) supplemented with 10% FBS (fetal bovine serum) and 1% penicillin/streptomycin. The cells were distributed in a 96-well plate at the density of 8×10^3 cells/well, followed by culture in a 37° C., CO2 incubator for 12 hours. The cells were washed with PBS once and the medium was replaced with glucose free DMEM. The cells were treated with either DMSO (0.1%) alone (control) or with the compounds of examples (20 μM) shown in Table 3, followed by culture in an anaerobic incubator (10% H2, 5% CO2, 85% N2, 37° C., chamber (ThermoForma, USA)) for 15 hours to induce cell death.
The level of cell death was measured by LDH (lactate dehydrogenase, Roche) assay. The LDH assay is a method for measuring the activity of LDH released from the damaged cells into the culture medium. NAD^+ was reduced to NADH and H^+ by LDH, and the bond of tetrazolium salt INT ring was cleaved by diaphorase to form formazan. Absorbance of the formazan was measured at 490 nm by using Victor 3 (PerkinElmer). The absorbance reflects the amount of dead cells.
The level of the control LDH under oxygen-glucose deprivation condition was regarded as 100%, and the level of LDH in the cell group cultured in normal medium (10% FBS, DMEM) for the same time was regarded as 0%. Based on that, the levels of LDH of the cell groups treated with the compounds of the invention under oxygen-glucose deprivation condition were converted into the relative ratio of cell death. The compounds of examples of the invention were treated to wells, each compound for three wells, and then each experiment was performed in triplicate.

[2] = biological target: RIPK1 (receptor-interacting serine/threonine-protein kinase 1) (Homo sapiens (Human), UniProt Q13546); experiment: RIPK1 inhibitory activity, autophosphorylation of immuno-precipitated RIPK1 with [32P]γ-ATP; format: biochemical; conditions: for activity at 100 µM: compound 100 μM, remaining RIPK1 phosphorylation; for inhibition at 100 µM: Table 2, 100 μM
Sequence of RIPK1 (receptor-interacting serine/threonine-protein kinase 1) (Q13546 whole entry, species assumed): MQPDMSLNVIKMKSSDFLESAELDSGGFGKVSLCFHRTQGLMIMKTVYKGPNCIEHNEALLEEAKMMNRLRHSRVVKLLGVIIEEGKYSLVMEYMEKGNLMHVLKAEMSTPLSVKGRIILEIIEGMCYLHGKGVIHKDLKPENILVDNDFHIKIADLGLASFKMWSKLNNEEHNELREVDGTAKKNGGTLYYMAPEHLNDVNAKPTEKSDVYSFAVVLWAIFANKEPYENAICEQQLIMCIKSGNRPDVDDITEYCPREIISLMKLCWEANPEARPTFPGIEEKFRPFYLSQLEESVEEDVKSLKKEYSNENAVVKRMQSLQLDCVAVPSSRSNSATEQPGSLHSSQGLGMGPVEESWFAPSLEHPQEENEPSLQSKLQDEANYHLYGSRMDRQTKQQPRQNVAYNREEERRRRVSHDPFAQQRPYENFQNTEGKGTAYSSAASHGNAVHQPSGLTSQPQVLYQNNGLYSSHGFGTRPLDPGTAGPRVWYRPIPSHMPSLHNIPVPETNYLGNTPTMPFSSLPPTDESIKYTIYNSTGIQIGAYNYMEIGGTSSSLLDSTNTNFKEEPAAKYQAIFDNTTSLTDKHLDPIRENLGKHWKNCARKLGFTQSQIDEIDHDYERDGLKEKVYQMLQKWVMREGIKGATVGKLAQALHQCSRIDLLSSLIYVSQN
Protocol: The following experiment was performed to evaluate RIPK1 (receptor-interacting serine/threonine-protein kinase 1) inhibitory activity of the compounds of examples of the invention.
RIPK1 enzyme immuno-precipitated in HEK293 (Human Embryonic Kidney 293) cell lysate was used as kinase. The experiment was performed according to the method described in Cell. 12; 137(6):1112-23(2009). RIPK1 protein was over-expressed in HEK293 cell line, to which lysis buffer (50 mM Tris-Cl [pH 8.0], 150 mM NaCl, 1 mM EDTA, 1% NP-40, 0.4 mM phenylmethylsulfonyl fluoride (PMSF)) was added for cell lysis. Centrifugation was performed at 13,000 rpm for 10 minutes to separate the supernatant. RIPK1 monoclonal antibody (610459, BD Bioscience) and A/G agarose beads (sc-2003, Santa Cruz Biotechnology) were added thereto, followed by immuno-precipitation in a 4° C. rotator for 12 hours.
The immune complex was washed with lysis buffer twice and then washed with kinase assay buffer (20 mM HEPES [pH7.6], 2 mM DTT, 1 mM NaF, 1 mM Na3Vo4, 20 mM β-glycerophosphate, 20 mM PNPP, 20 mM MgCl2, 20 mM MnCl2, 1 mM Benzamidie, and 1 mM EDTA) lastly. Kinase assay buffer and the compound were added to the RIPK1 immuno-precipitate, followed by reaction in a 24° C. constant-temperature water bath for 15 minutes. Additional reaction was induced for 30 minutes at 30° C. after 100 μM of ATP and 10 μCi[^32P] γ-ATP were added thereto. The reaction mixture was washed with kinase assay buffer once, to which protein loading buffer was added, followed by heating at 100° C. for 3 minutes. The reaction mixture was then loaded on 8% SDS-PAGE gel. Radioactive image of the phosphorylated RIPK1 was detected with FLA-7000 (GE healthcare). The image Quant TL program was used for the quantification.

`O=C(c1cc2c(Cc3ccc(F)cc3F)cccc2s1)N1CCOCC1` [Example 57, (4-(2,4-difluorobenzyl)benzo[b]thiophene-2-yl)(morpholino)methanone] was tested, and the “Death of retinal nerve cell (%)” value [1] was 89.1 ± 16.9% and the activity at 100 µM [2] was 20 ± 14.1%.

With `Cc1ccc(-c2cccc3sc(C(=O)N4CCOCC4)cc23)cc1` [Example 32, morpholino(4-p-tolylbenzo[b]thiophene-2-yl)methanone] the “Death of retinal nerve cell (%)” value [1] was 64.6 ± 7.4% and the activity at 100 µM [2] was 6.5 ± 4.9%.

For `Cn1cc(-c2cccc3sc(C(=O)N4CCOCC4)cc23)cn1` [Example 73, (4-(1-methyl-1H-pyrazol-4-yl)benzo[b]thiophene-2-yl)(morpholino)methanone], the “Death of retinal nerve cell (%)” value [1] was 62.3 ± 10.1%, the inhibition at 100 µM [2] was no less than 50% and the activity at 100 µM [2] was 22 ± 19.8%.

`Cn1c(C#N)ccc1-c1cccc2sc(C(=O)N3CCOCC3)cc12` [Example 72, 1-methyl-5-(2-(morpholine-4-carbonyl)benzo[b]thiophene-4-yl)-1H-pyrrole-2-carbonitrile] was tested, and the “Death of retinal nerve cell (%)” value [1] was 58.5 ± 16.1% and the activity at 100 µM [2] was 7 ± 8.5%.

`CN1CCN(C(=O)c2cc3c(-c4ccc(F)cc4)cccc3s2)CC1.Cl` [Example 49, (4-(4-fluorophenyl)benzo[b]thiophene-2-yl)(4-methylpiperazine-1-yl)methanone hydrochloride] was tested, and the “Death of retinal nerve cell (%)” value [1] was 43.8 ± 13.7%, the inhibition at 100 µM [2] was no less than 50% and the activity at 100 µM [2] was 27 ± 5.7%.

With `Cc1cc(C)c2cc(C(=O)N3CCOCC3)sc2c1` [Example 17, (4,6-dimethylbenzo[b]thiophene-2-yl)(morpholino)methanone] the “Death of retinal nerve cell (%)” value [1] was 38.5 ± 5.5% and the activity at 100 µM [2] was 62.5 ± 16.8%.

With `O=C(c1cc2cc(-c3ccc(F)cc3)ccc2s1)N1CCOCC1` [Example 40, (5-(4-fluorophenyl)benzo[b]thiophene-2-yl)(morpholino)methanone] the “Death of retinal nerve cell (%)” value [1] was 68.2 ± 11.2% and the activity at 100 µM [2] was 57.5 ± 12%.

`O=C(O)C1COCCN1C(=O)c1cc2c(-c3ccc(F)cc3)cccc2s1` (centres unmarked) [Example 8, 4-(4-(4-fluorophenyl)benzo[b]thiophene-2-carbonyl)morpholine-3-carboxylic acid] was tested, and the “Death of retinal nerve cell (%)” value [1] was 52.3 ± 11.1% and the activity at 100 µM [2] was 88.5 ± 16.3%.

For `O=C(c1cc2c(-c3ccc(-c4ccccc4)cc3)cccc2s1)N1CCOCC1` [Example 31, (4-(biphenyl-4-yl)benzo[b]thiophene-2-yl)(morpholino)methanone], the “Death of retinal nerve cell (%)” value [1] was 81.2 ± 8.3% and the activity at 100 µM [2] was 85.2 ± 3.5%.

For `O=C(c1cc2c(-c3ccc(F)cc3)cncc2s1)N1CCOCC1` [Example 2, (4-(4-fluorophenyl)thieno[2,3-c]pyridine-2-yl)(morpholino)methanone], the inhibition at 100 µM [2] was no less than 50% and the activity at 100 µM [2] was 45 ± 12.7%.

With `CC(=O)Nc1ccc(-c2cccc3sc(C(=O)N4CCOCC4)cc23)cc1` [Example 10, N-(4-(2-(morpholine-4-carbonyl)benzo[b]thiophene-4-yl)phenyl)acetamide] the “Death of retinal nerve cell (%)” value [1] was 49.0 ± 7.0% and the activity at 100 µM [2] was 62.5 ± 16.8%.

In the case of `O=C(c1cc2c(-c3ccc4[nH]ccc4c3)cccc2s1)N1CCOCC1` [Example 9, (4-(1H-indole-5-yl)benzo[b]thiophene-2-yl)(morpholino)methanone], the “Death of retinal nerve cell (%)” value [1] is reported as 64.6 ± 9.5% and the activity at 100 µM [2] is reported as 76 ± 33.9%.

For `O=C(c1cc2ccc3ccccc3c2s1)N1CCOCC1` [Example 6, morpholino(naphtho[1,2-b]thiophene-2-yl)methanone], the “Death of retinal nerve cell (%)” value [1] was 30.7 ± 1.06%, the inhibition at 100 µM [2] was no less than 50% and the activity at 100 µM [2] was 48.5 ± 23.3%.

With `O=C(c1cc2c(Cc3ccc(F)cc3)cccc2s1)N1CCOCC1` [Example 67, (4-(4-fluorobenzyl)benzo[b]thiophene-2-yl)(morpholino)methanone] the “Death of retinal nerve cell (%)” value [1] was 59.3 ± 14.9%, the inhibition at 100 µM [2] was no less than 50% and the activity at 100 µM [2] was 49.5 ± 3.5%.

For `O=C(c1cc2c(-c3cccc(-c4ccccc4)c3)cccc2s1)N1CCOCC1` [Example 41, (4-(biphenyl-3-yl)benzo[b]thiophene-2-yl)(morpholino)methanone], the “Death of retinal nerve cell (%)” value [1] was 58.3 ± 6.5% and the activity at 100 µM [2] was 84.7 ± 6.4%.

For `O=C(c1cc2c(Nc3ccc(F)cc3)cccc2s1)N1CCOCC1` [Example 68, (4-(4-fluorophenylamino)benzo[b]thiophene-2-yl)(morpholino)methanone], the “Death of retinal nerve cell (%)” value [1] was 58.3 ± 11.9%, the inhibition at 100 µM [2] was no less than 50% and the activity at 100 µM [2] was 33.5 ± 12%.

`O=C(c1cc2c(SCc3ccc(F)cc3)cccc2s1)N1CCOCC1` [Example 71, (4-(4-fluorobenzylthio)benzo[b]thiophene-2-yl)(morpholino)methanone] was tested, and the “Death of retinal nerve cell (%)” value [1] was 89.1 ± 14.9% and the activity at 100 µM [2] was 87 ± 4.2%.

For `Cl.NC1CCN(C(=O)c2cc3c(-c4ccc(F)cc4)cccc3s2)CC1` [Example 37, (4-aminopiperidine-1-yl) (4-(4-fluorophenyl)benzo[b]thiophene-2-yl)methanone hydrochloride], the “Death of retinal nerve cell (%)” value [1] was 87.0 ± 13.2%, the inhibition at 100 µM [2] was no less than 50% and the activity at 100 µM [2] was 25.5 ± 14.8%.

With `O=C(c1cc2c(-c3ccc(F)cc3)ccc(Cl)c2s1)N1CCOCC1` [Example 53, (7-chloro-4-(4-fluorophenyl)benzo[b]thiophene-2-yl)(morpholino)methanone] the “Death of retinal nerve cell (%)” value [1] was 59.9 ± 9.7% and the activity at 100 µM [2] was 70 ± 4.2%.

For `O=C(c1cc2c(-c3ccc(F)cc3)cccc2s1)N1CCC(O)CC1` [Example 48, (4-(4-fluorophenyl)benzo[b]thiophene-2-yl)(4-hydroxypiperidine-1-yl)methanone], the “Death of retinal nerve cell (%)” value [1] was 47.7 ± 13.2%, the inhibition at 100 µM [2] was no less than 50% and the activity at 100 µM [2] was 25.5 ± 0.7%.

For `O=C(c1cc2c(NS(=O)(=O)c3ccc(F)cc3)cccc2s1)N1CCOCC1` [Example 70, 4-fluoro-N-(2-(morpholine-4-carbonyl)benzo[b]thiophene-4-yl)benzenesulfonamide], the “Death of retinal nerve cell (%)” value [1] was 48.7 ± 10.3% and the activity at 100 µM [2] was 65 ± 32.5%.

For `O=C(O)c1ccc(-c2cccc3sc(C(=O)N4CCOCC4)cc23)cc1` [Example 33, 4-(2-(morpholine-4-carbonyl)benzo[b]thiophene-4-yl)benzoic acid], the “Death of retinal nerve cell (%)” value [1] was 51.5 ± 7.0% and the activity at 100 µM [2] was 90 ± 2.8%.

`Cl.O=C(c1cc2c(-c3ccc(F)nc3)cccc2s1)N1CCOCC1` [Example 66, (4-(6-fluoropyridine-3-yl)benzo[b]thiophene-2-yl)(morpholino)methanone hydrochloride] was tested, and the “Death of retinal nerve cell (%)” value [1] was 45.2 ± 10.5% and the activity at 100 µM [2] was 11.5 ± 4.9%.

`O=C(c1cc2c(Nc3ccc(F)cc3F)cccc2s1)N1CCOCC1` [Example 58, (4-(2,4-difluorophenylamino)benzo[b]thiophene-2-yl)(morpholino)methanone] was tested, and the “Death of retinal nerve cell (%)” value [1] was 89.4 ± 6.4% and the activity at 100 µM [2] was 78.5 ± 30.4%.

`COc1ccc(-c2cccc3sc(C(=O)N4CCOCC4)cc23)cc1` [Example 34, (4-(4-methoxyphenyl)benzo[b]thiophene-2-yl)(morpholino)methanone] was tested, and the “Death of retinal nerve cell (%)” value [1] was 55.4 ± 18.1% and the activity at 100 µM [2] was 16.5 ± 7.8%.

In the case of `O=C(c1cc2cc(O)ccc2[nH]1)N1CCOCC1` [Example 11, (5-hydroxy-1H-indole-2-yl)(morpholino)methanone], the “Death of retinal nerve cell (%)” value [1] is reported as 41.1 ± 3.1% and the activity at 100 µM [2] is reported as 70.7 ± 28.5%.

`O=C(c1cc2c(-c3ccc(O)cc3)cccc2s1)N1CCOCC1` [Example 44, (4-(4-hydroxyphenyl)benzo[b]thiophene-2-yl)(morpholino)methanone] was tested, and the “Death of retinal nerve cell (%)” value [1] was 81.1 ± 6.5%, the inhibition at 100 µM [2] was no less than 50% and the activity at 100 µM [2] was 21 ± 17%.
